Results taken from patent US20090221621A1, “Methods of Reducing Alcohol-Induced Dose Dumping for Opioid Sustained Release Oral Dosage Forms” (priority 2005, published 2009).

Test: Release test of matrix tablets, USP Type VII, 40% EtOH/water 0-4 hrs then water vs water only (Examples 9-11)
Format: physicochemical
Settings: oxycodone HCl and hydromorphone HCl 30 mg tablets with vs without stearyl alcohol, FIGS. 12 and 13
Description: Ten grams each of formulations with and without stearyl alcohol were prepared via wet granulation technique. The amounts set forth in Tables 5 and 6 of oxycodone hydrochloride, lactose and Eudragit® RS PO were combined in an appropriate vessel and blended for 5 minutes. The powder mixture was granulated with water until a moist mass was produced. The wet mass was then passed through a 16-mesh size screen and was allowed to dry overnight at ambient conditions. In a small vessel, the required amount of stearyl alcohol (a stiffening agent) was melted over a water bath. Keeping the molten stearyl alcohol in the water bath, the desired amount of dried granules were added and mixed until the granules were sufficiently coated with the molten stearyl alcohol. The mixture was removed from the water bath and allowed to cool at ambient conditions before sizing through a 16-mesh screen. Talc and magnesium stearate were added to the coated granules and blended using a suitable blender. The granules were then compressed to 375 mg tablets using an appropriate tabletting machine, such as a Carver press. For granules that were not coated with stearyl alcohol, granules were compressed to 300 mg tablets.
The same manufacturing procedure as Example 7 was used, with the substitution of hydromorphone HCl instead of oxycodone HCl.
Samples for this test came from Examples 7 and 8. […]

CCCCCCCCCCCCCCCCCCO [Stearyl alcohol, stearyl alcohol]
Effect of the excipient on ethanol effect on opioid release functionality: suppressed ethanol effect on opioid functionality
